Measured values reported in US10525187B2, “Apparatus for removing protein-bound toxins from blood plasma” (Fresenius Medical Care Deutschland GmbH, priority 2012, dated 2020).

Target: bovine serum albumin (Bos taurus, UniProt P02769)
Test: Dialysis module, HF field effect in the frequency range 1 to 170 MHz on separation of phenylacetic acid (Embodiment 2)
Assay type: in vitro ADME
Conditions: BSA 60 mg/ml, toxin 1 mmol/l
Method: A dialysis module was set up for this purpose in that conventional hemofiltration capillaries were cast as loops using silicone into a syringe receiving neck. An aqueous albumin solution was introduced into the respective module in the presence of the uremic toxins phenylacetic acid, p-hydroxyhippuric acid and indoxyl sulfate. This solution was filtered with the dialysis module using a syringe pump for 10 min. […] The electromagnetic field is incremented by means of a high-frequency voltage source over a period of 10 minutes from […] in steps of 1 MHz. […] The effect of the HF field on the bond between the proteins and the uremic toxins was able to be evaluated by a comparison of the uremic toxin concentration in the resulting filtrates.
The HF field was varied in subbands of 10 MHz in the frequency range 1-170 MHz and was compared with a control experiment without an HF field.
The quantitative determination of the phenylacetic acid was performed using HPLC.
The results of the experiments are collected in FIG. 9. […] The effect was particularly pronounced at 54.6% in the subband from 110 to 120 MHz.

Chain of bovine serum albumin (P02769 25-607): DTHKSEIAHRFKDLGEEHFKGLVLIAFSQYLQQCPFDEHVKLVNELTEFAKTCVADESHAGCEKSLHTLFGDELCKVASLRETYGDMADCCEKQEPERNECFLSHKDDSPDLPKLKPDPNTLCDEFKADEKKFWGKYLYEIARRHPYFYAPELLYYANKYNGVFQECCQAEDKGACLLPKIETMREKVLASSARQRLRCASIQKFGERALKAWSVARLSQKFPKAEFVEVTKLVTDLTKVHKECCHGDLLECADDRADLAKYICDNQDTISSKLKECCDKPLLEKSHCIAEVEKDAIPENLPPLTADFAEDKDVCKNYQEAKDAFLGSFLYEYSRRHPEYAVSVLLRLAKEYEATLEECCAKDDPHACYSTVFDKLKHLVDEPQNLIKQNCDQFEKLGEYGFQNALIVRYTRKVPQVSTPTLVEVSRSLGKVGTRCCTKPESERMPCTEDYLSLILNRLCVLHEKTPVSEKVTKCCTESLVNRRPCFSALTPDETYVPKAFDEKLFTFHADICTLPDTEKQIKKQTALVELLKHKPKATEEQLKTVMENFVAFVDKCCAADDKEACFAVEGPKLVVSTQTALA

O=C(O)Cc1ccccc1 [phenylacetic acid]
increase of separation rate under the influence of the HF field (HF field 1-170 MHz in subbands of 10 MHz vs control without HF field): at least 45.3% | increase of separation rate under the influence of the HF field (subband from 110 to 120 MHz vs control without HF field): 54.6%
